Experimental findings from publication PMC6291738, “Identification of novel HIV-1-derived HLA-E-binding peptides” (Immunology Letters, 2018) are described below.

Where “and” joins values, the source holds several entries; their conditions need not be identical. Identical values can stand only once.

The target of assay [1] is T1, HLA-E*01:01 (Homo sapiens, UniProt P13747, G128R). Description: HLA-E/peptide cell-surface stabilization (binding) assay, RMA-S cells transfected with HLA-E*01:01. It is filed as cell-based. Conditions: RMA-S cells with HLA-E*01:01 and human β2-microglobulin; overnight 26 °C, peptide 1 h 26 °C, 3 h 37 °C; peptide 100 μg/ml; Index = (Sample 37 °C – No peptide 37 °C)/(Sample 26 °C – No peptide 26 °C); flow cytometry. The arrangement: RMA-S cells expressing HLA-E*01:01 and E*01:03 were generated by transfecting the genes into the RMA-S cell line; expressed in transfected cells; host or cells: murine TAP-deficient RMA-S cells. The procedure:
(§1) Binding of PM9 to both HLA-E*01:01 and –E*01:03 alleles was assessed using an HLA-E/peptide cell-surface stabilization assays. Thus, murine RMA-S cells deficient in transporter associated with antigen processing (TAP) were stably transfected with one of the two HLA-E alleles together with human β2-microglobuline. Then, stabilization of HLA-E/PM9 and HLA-E/VL9 complexes was compared in peptide-titration analyses using peptide concentrations ranging from 0.01 μg/ml to 100 μg/ml by growing transfected RMA-S cells overnight at 26 °C, pulsing them with peptide for 1 h and transferring them to 37 °C for 3 additional hours. Weak half-maximal effective concentrations (EC50) of over 100 μM were indicated for the interaction of PM9 with the two HLA-E*01:01 and E*01:03 molecules (Fig. 1A).

For assay [2], the target named is T2, HLA-E*01:03 (Homo sapiens, UniProt P13747). The experiment in a line: HLA-E/peptide cell-surface stabilization (binding) assay, RMA-S cells transfected with HLA-E*01:03. It counts as cell-based. The arrangement: RMA-S cells expressing HLA-E*01:01 and E*01:03 were generated by transfecting the genes into the RMA-S cell line; expressed in transfected cells; host or cells: murine TAP-deficient RMA-S cells. Conditions: for Cell-Surface Stabilization Index E*01:03 ± SD: RMA-S cells with HLA-E*01:03 and human β2-microglobulin, overnight 26 °C, peptide 1 h 26 °C, 3 h 37 °C, peptide 100 μg/ml, Index = (Sample 37 °C – No peptide 37 °C)/(Sample 26 °C – No peptide 26 °C), mean ± SD n=3. The procedure:
as §1

Assay [3] deals with T2, HLA-E*01:03. Conditions: summary of both assays.
In assay [4] the target is T1, HLA-E*01:01. Description: Single-chain peptide-β2-microglobulin-MHC-E trimer stabilization assay, HEK 293T cells, HLA-E*01:01. It counts as cell-based. The arrangement: expressed in transfected cells. Conditions: transiently transfected HEK 293T cells; mAb 3D12. From the text: (§2) The chimeric genes coding for the single-chain peptide-β2-microblobuline-MHC-E trimers were constructed as described previously. Briefly, the DNA fragment coding the tested peptide was inserted downstream of the fragment coding for the signal sequence of HLA-E*01:01 followed by coding sequences for a flexible linker [G4S]4, β2-microglobulin and the desired heavy chain of MHC-E. […] to accommodate for the flexible linker. The assembled plasmids were then transfected into HEK 293 T cells maintained between 10% and 90% confluency at 37 °C, 5% CO2 in DMEM (Life Technologies) supplemented with 10% FBS (SeraLabs), and 50 units/ml Penicillin/50 μg/ml Streptomycin (Life Technologies). Transfections were carried out in 6-well plates using GeneJuice (Millipore) as per the manufacturer’s instructions.
(§3) To further confirm PM9-interaction with the MHC-E molecules, we employed an assay based on cell-surface stabilization of single-chain peptide-β2-microblobuline-MHC-E trimers. Briefly, a DNA fragment coding for the tested peptide, here PM9, was inserted downstream of an HLA-E leader peptide and was followed by flexible [G4S]4 linker, β2-microblobuline and Y84 A point-mutated MHC-E heavy chain, which accommodated the flexible linker (Fig. 1B left). […]

The next assay relates to Mamu-E*02:04. The experiment in a line: Single-chain peptide-β2-microglobulin-MHC-E trimer stabilization assay, HEK 293T cells, Mamu-E*02:04. Conditions: transiently transfected HEK 293T cells; mAb 4D12. It counts as cell-based, rhesus macaque (Macaca mulatta).
Source text: as §2, §3

Assay [5] addresses T2, HLA-E*01:03. The experiment in a line: Single-chain peptide-β2-microglobulin-MHC-E trimer stabilization assay, HEK 293T cells, HLA-E*01:03. It is filed as cell-based. The arrangement: expressed in transfected cells. Conditions: transiently transfected HEK 293T cells; mAb 3D12; compared with VL9 and irrelevant peptide.
Source text: as §2
To further confirm PM9-interaction with the MHC-E molecules, we employed an assay based on cell-surface stabilization of single-chain peptide-β2-microblobuline-MHC-E trimers. Briefly, a DNA fragment coding for the tested peptide, here PM9, was inserted downstream of an HLA-E leader peptide and was followed by flexible [G4S]4 linker, β2-microblobuline and Y84 A point-mutated MHC-E heavy chain, which accommodated the flexible linker (Fig. 1B left). […] From these experiments, we concluded that the PM9 peptide bound to HLA-E molecules, and stabilized and increased the HLA-E expression on the cell surface.
Fig. 2 Identification of HLA-E-binding peptides in a single-chain trimer stabilization assay. A single chain peptide-β2-microglobuline-MHC-E heavy chain trimer stabilization assay was employed to determine the candidate 9-mer peptide binding to HLA-E*01:03 (brown line) and compared to that induced by VL9 (yellow area) and irrelevant (pink area) peptide. Expression of trimer on transiently transfected into HEK 293T cells was assessed using a […] 3D12 mAb in flow cytometry. Please see gating strategy in Fig. S3.

In the case of GHQAAMQMLKDTINE, at HLA-E*01:01 [1], the “Cell-Surface Stabilization Index E*01:01” value is 0.27. Moreover, at HLA-E*01:03 [2], the “Cell-Surface Stabilization Index E*01:03 ± SD” value was found to be 0.455 ± 0.033.

In the case of “GHQAAMQMLKETINE [C032, tHIVconsvX 15-mer peptide […]]”, on HLA-E*01:01 [1], the “Cell-Surface Stabilization Index E*01:01” value is recorded as 0.16. For the same sequence, the “Cell-Surface Stabilization Index E*01:03 ± SD” value at HLA-E*01:03 [2] is recorded as 0.480 ± 0.057.

“INEEAAEWDRLHPVH [C038, tHIVconsvX 15-mer peptide […]]”: the “Cell-Surface Stabilization Index E*01:01” value at HLA-E*01:01 [1] was determined as 0.20. Further, the “Cell-Surface Stabilization Index E*01:03 ± SD” value at HLA-E*01:03 [2] is given as 0.389 ± 0.039.

For “INEEAAEWDRVHPVH [C037, tHIVconsvX 15-mer peptide […]]”, the “Cell-Surface Stabilization Index E*01:01” value on HLA-E*01:01 [1] stood at 0.30. Further, the “Cell-Surface Stabilization Index E*01:03 ± SD” value on HLA-E*01:03 [2] is 0.419 ± 0.031.

For the sequence IVRMYSPTSILDIKQ, the “Cell-Surface Stabilization Index E*01:01” value on HLA-E*01:01 [1] was 0.03. In addition, the “Cell-Surface Stabilization Index E*01:03 ± SD” value on HLA-E*01:03 [2] was found to be 0.518 ± 0.033.

Regarding NEEAAEWDR [NR9], the “HLA-E binder classification across the SCT assay and the LCL721.221-HLA-E*01:03 assay (MFI over 4000)” value on HLA-E*01:03 [3] was “positive stabilization signal in at least one of the two employed assays”.

For “PQDLNMMLNIVGGHQ [C026, tHIVconsvX 15-mer peptide […]]”, at HLA-E*01:01 [1], the “Cell-Surface Stabilization Index E*01:01” value is 0.25. The “Cell-Surface Stabilization Index E*01:03 ± SD” value at HLA-E*01:03 [2] came out at 0.429 ± 0.037.

Regarding “PQDLNTMLNTVGGHQ [C025, tHIVconsvX 15-mer peptide […]]”, on HLA-E*01:01 [1], the “Cell-Surface Stabilization Index E*01:01” value turned out to be 0.32. For the same sequence, the “Cell-Surface Stabilization Index E*01:03 ± SD” value at HLA-E*01:03 [2] was 0.431 ± 0.038.

On to QMAVFIHNF [QF9], for which the “HLA-E binder classification across the SCT assay and the LCL721.221-HLA-E*01:03 assay (MFI over 4000)” value at HLA-E*01:03 [3] was “positive stabilization signal in at least one of the two employed assays”.

Regarding “QMAVFIHNFKRKGGI [C352, tHIVconsvX 15-mer peptide […]]”, the “Cell-Surface Stabilization Index E*01:01” value at HLA-E*01:01 [1] came out at 0.26. For the same sequence, on HLA-E*01:03 [2], the “Cell-Surface Stabilization Index E*01:03 ± SD” value was found to be 0.641 ± 0.051.

With “QMAVLIHNFKRRGGI [C353, tHIVconsvX 15-mer peptide […]]”, at HLA-E*01:01 [1], the “Cell-Surface Stabilization Index E*01:01” value worked out at 0.17. Further, the “Cell-Surface Stabilization Index E*01:03 ± SD” value at HLA-E*01:03 [2] was 0.632 ± 0.065.

For “SALSEGATPQDLNMM [C022, tHIVconsvX 15-mer peptide […]]”, the “Cell-Surface Stabilization Index E*01:01” value at HLA-E*01:01 [1] is reported as 0.14. At HLA-E*01:03 [2], the “Cell-Surface Stabilization Index E*01:03 ± SD” value was 0.382 ± 0.027.

On to “TEEKIKALTEICKEM [C182, tHIVconsvX 15-mer peptide […]]”, for which the “Cell-Surface Stabilization Index E*01:01” value on HLA-E*01:01 [1] turned out to be 0.33. Moreover, the “Cell-Surface Stabilization Index E*01:03 ± SD” value at HLA-E*01:03 [2] amounted to 0.463 ± 0.085.

On to TVCVIWCIH [TH9, reference compound], for which the “HLA-E*01:01 single-chain trimer surface expression (MFI) relative to non-binding peptide” value on HLA-E*01:01 [4] was “non-binding”. For the same sequence, the “Mamu-E*02:04 single-chain trimer surface expression (MFI) relative to non-binding peptide” value with Mamu-E*02:04 is “non-binding”. The “HLA-E*01:03 single-chain trimer surface stabilization” value on HLA-E*01:03 [5] is given as “non-binding”.

As to VMAPRTLVL [VL9, reference compound], the “Cell-Surface Stabilization Index E*01:03/VL9” value at HLA-E*01:03 [2] (VL9 (VMAPRTLVL) positive control of the experimental day, RMA-S cells with HLA-E*01:03) was 2.572 and 2.369 and 2.600 and 2.281.

Consider “VYYRDSRDPIWKGPA [C376, tHIVconsvX 15-mer peptide […]]”, for which the “Cell-Surface Stabilization Index E*01:01” value on HLA-E*01:01 [1] was 0.22. Further, the “Cell-Surface Stabilization Index E*01:03 ± SD” value on HLA-E*01:03 [2] is 0.366 ± 0.044.

Regarding “VYYRDSRDPLWKGPA [C377, tHIVconsvX 15-mer peptide […]]”, the “Cell-Surface Stabilization Index E*01:01” value at HLA-E*01:01 [1] came to 0.17. For the same sequence, the “Cell-Surface Stabilization Index E*01:03 ± SD” value on HLA-E*01:03 [2] amounted to 0.353 ± 0.039.

“YFSVPLDESFRKYTA [C226, tHIVconsvX 15-mer peptide […]]”: at HLA-E*01:01 [1], the “Cell-Surface Stabilization Index E*01:01” value is listed as −0.15. Besides, the “Cell-Surface Stabilization Index E*01:03 ± SD” value on HLA-E*01:03 [2] is 0.669 ± 0.010.

For the sequence “YFSVPLDKDFRKYTA [C227, tHIVconsvX 15-mer peptide […]]”, on HLA-E*01:01 [1], the “Cell-Surface Stabilization Index E*01:01” value turned out to be 0.21. Further, at HLA-E*01:03 [2], the “Cell-Surface Stabilization Index E*01:03 ± SD” value came to 0.618 ± 0.042.
